These results are taken from patent US6486201B1, “Agarofuan derivatives, their preparation, pharmaceutical composition containing them and their use as medicine” (Institute of Materia Medica, Chinese Academy of Medical …, priority 1998, dated 2002).

With `CC(C)CCC1=CCC[C@@]2(C)CC[C@@H]3C[C@]12OC3(C)C` [Example 5, (1R,6S,9R)6,10,10-Trimethyl-2-isopentyl-11-oxatricyclo[7.2.1.0^1,6]dodec-2-ene], the melting point lay in the range of 38 to 39 °C.

With `CC1(C)O[C@]23C[C@H]1CC[C@]2(C)CCC=C3Cc1ccccc1` [Example 7, (1R,6S,9R)6,10,10-Trimethyl-2-benzyl-11-oxatricyclo[7.2.1.0^1,6]dodec-2-ene], the melting point was 49 to 50 °C. The same measure for `CC1(C)O[C@]23C[C@H]1CC[C@]2(C)CCC=C3Cc1ccc(F)cc1` [Example 8, (1R,6S,9R)6,10,10-Trimethyl-2-(4-flurobenzyl)-11-oxatricyclo[7.2.1.0^1,6]dodec-2-ene]: 131 to 133 °C; for `CC1(C)O[C@]23C[C@H]1CC[C@]2(C)CCC=C3Cc1ccc(Cl)cc1` [Example 10, (1R,6S,9R)6,10,10-Trimethyl-2-(4-chlorobenzyl)-11-oxatricyclo[7.2.1.0^1,6]dodec-2-ene]: 87 to 88 °C; for `CC1(C)O[C@]23C[C@H]1CC[C@]2(C)CCC=C3CCO` [Example 11, (1R,6S,9R)6,10,10-Trimethyl-2-(2-hydroxyethyl)-11-oxatricyclo[7.2.1.0^1,6]dodec-2-ene]: 34 to 36 °C. The same measure for `CCCC[C@]1(O)CCC[C@@]2(C)CC[C@@H]3C[C@@]21OC3(C)C` [Example 16, (1R,2S,6S,9R)6,10,10-Trimethyl-2-butyl-2-hydroxy-11-oxatricyclo[7.2.1.0^1,6]dodecane]: 70 to 72 °C. The compound `CCCC[C@@]1(O)CCC[C@@]2(C)CC[C@@H]3C[C@@]21OC3(C)C` [Example 21, (1R,2R,6S,9R)6,10,10-Trimethyl-2-butyl-2-hydroxy-11-oxatricyclo[7.2.1.0^1,6]dodecane] showed a melting point of 90 to 92 °C. With `CCCC[C@H]1[C@@H](O)CC[C@@]2(C)CC[C@@H]3C[C@]12OC3(C)C` [Example 22, (1S,2S,3S,6R,9R)6,10,10-Trimethyl-2-butyl-3-hydroxy-11-oxatricyclo[7.2.1.0^1,6]dodecane] the figure was 47 to 48 °C.

`CCCC[C@H]1C(=O)CC[C@@]2(C)CC[C@@H]3C[C@]12OC3(C)C` [Example 23, (1S,2R,6R,9R)6,10,10-Trimethyl-2-butyl-11-oxatricyclo[7.2.1.0^1,6]dodecan-3-one] displayed a melting point of 64 to 66 °C. In turn, `CC1(C)O[C@]23C[C@H]1CC[C@]2(C)CC[C@](C)(O)C3` [Example 24, (1S,3S,6R,9R)3,6,10,10-Tetramethyl-3-hydoxy-11-oxatricyclo[7.2.1.0^1,6]dodecane] gave a melting point of 68 to 70 °C. With `CC(=O)CCC1=CCC[C@@]2(C)CC[C@@H]3C[C@]12OC3(C)C` [Example 29, (1R,6S,9R)6,10,10-Trimethyl-2-(3-oxobutyl)-11-oxatricyclo[7.2.1.0^1,6]dodec-2-ene] the figure was 59 to 62 °C; with `CC1=C[C@@]23C[C@@H](CC[C@]2(C)CC1)C(C)(C)O3` [Example 32, (1S,6R,9R)3,6,10,10-Tetramethyl-11-oxatricyclo[7.2.1.0^1,6]dodec-2-ene], 38 to 39 °C.

Usually melting point stands for the temperature, or range, at which the solid turns liquid.
